Laboratory results published in patent US20240352010A1, “SUBSTITUTED 1,2,4-THIADIAZOLYL NICOTINAMIDES, SALTS OR N-OXIDES THEREOF AND THEIR USE AS HERBICIDALLY ACTIVE SUBSTANCES” (BayerAktiengesellschaft, priority 2021, published 2024).

Experiments:
Assay type in all cases: in vivo
[1] = tested on: Matricaria inodora (MATIN); assay: Herbicidal pre-emergence action, MATIN
Source text: (§1) Seeds of mono- and dicotyledonous weed plants were sown in plastic pots (double sowings with one species of mono- and one species of dicotyledonous weed plants per pot), in sandy loam, and covered with soil. The compounds according to the invention, formulated in the form of wettable powders (WP) or as emulsifiable concentrates (EC), were applied to the surface of the covering soil as an aqueous suspension or as an emulsion, with the addition of 0.5% of an additive, at an application rate of 600 litres of water per hectare (converted). Following treatment, the pots were placed in a greenhouse and kept under optimum growth conditions for the test plants. The visual grading of the damage to the test plants is carried out after ca. 3 weeks in comparison to untreated controls (herbicidal effect in percent (%): 100% effect=plants have died, 0% effect=as control plants). Seeds of mono- and dicotyledonous weed plants were sown in plastic pots (double sowings with one species of mono- and one species of dicotyledonous weed plants per pot), in sandy loam, and covered with soil. The compounds according to the invention, formulated in the form of wettable powders (WP) or as emulsifiable concentrates (EC), were applied to the surface of the covering soil as an aqueous suspension or as an emulsion, with the addition of 0.5% of an additive, at an application rate of 600 litres of water per hectare (converted). Following treatment, the pots were placed in a greenhouse and kept under optimum growth conditions for the test plants. The visual grading of the damage to the test plants is carried out after ca. 3 weeks in comparison to untreated controls (herbicidal effect in percent (%): 100% effect=plants have died, 0% effect=as control plants).

[2] = tested on: Amaranthus retroflexus (AMARE); assay: Herbicidal pre-emergence action, AMARE
Source text: as §1

[3] = tested on: Stellaria media (STEME); assay: Herbicidal pre-emergence action, STEME
Source text: as §1

[4] = tested on: Amaranthus retroflexus (AMARE); assay: Herbicidal post-emergence action, AMARE
Source text: (§2) Seeds of mono- and dicotyledonous weed plants were sown in plastic pots (double sowings with one species of mono- and one species of dicotyledonous weed plants per pot), in sandy loam, covered with soil and grown under controlled growth conditions. 2 to 3 weeks after sowing, the test plants were sprayed in the single-leaf stage. The compounds according to the invention, formulated in the form of wettable powders (WP) or as emulsifiable concentrates (EC), were sprayed onto the green plant parts as an aqueous suspension or as an emulsion, with the addition of 0.5% of an additive, at an application rate of 600 litres of water per hectare (converted). The test plants were placed in the greenhouse for ca. 3 weeks under optimum growth conditions, and then the effect of the preparations is assessed visually in comparison with untreated controls (herbicidal effect in percent (%): 100% effect=plants have died, 0% effect=as control plants). […]

[5] = tested on: Kochia scoparia (KCHSC); assay: Herbicidal post-emergence action, KCHSC; settings: 1280 g/ha, assessed visually after ca. 3 weeks vs untreated controls (Table B4)
Source text: as §2

[6] = tested on: Stellaria media (STEME); assay: Herbicidal post-emergence action, STEME; settings: 1280 g/ha, assessed visually after ca. 3 weeks vs untreated controls (Table B9)
Source text: as §2

[7] = tested on: Veronica persica (VERPE); assay: Herbicidal post-emergence action, VERPE; settings: 1280 g/ha, assessed visually after ca. 3 weeks vs untreated controls (Table B10)
Source text: as §2

[8] = tested on: Poa annua (POAAN); assay: Herbicidal pre-emergence action, POAAN; settings: 1280 g/ha, visual grading after ca. 3 weeks vs untreated controls (Table A7)
Source text: as §1

[9] = tested on: Kochia scoparia (KCHSC); assay: Herbicidal pre-emergence action, KCHSC; settings: 1280 g/ha, visual grading after ca. 3 weeks vs untreated controls (Table A4)
Source text: as §1

[10] = tested on: Matricaria inodora (MATIN); assay: Herbicidal post-emergence action, MATIN; settings: 1280 g/ha, assessed visually after ca. 3 weeks vs untreated controls (Table B6)
Source text: as §2

[11] = tested on: Poa annua (POAAN); assay: Herbicidal post-emergence action, POAAN; settings: 1280 g/ha, assessed visually after ca. 3 weeks vs untreated controls (Table B8)
Source text: as §2

[12] = tested on: Setaria viridis (SETVI); assay: Herbicidal pre-emergence action, SETVI
Source text: as §1

[13] = 320 g/ha, visual grading after ca. 3 weeks vs untreated controls (Table C3)
[14] = 1280 g/ha, visual grading after ca. 3 weeks vs untreated controls (Table A6)
[15] = 1280 g/ha, visual grading after ca. 3 weeks vs untreated controls (Table A11)
[16] = 320 g/ha, visual grading after ca. 3 weeks vs untreated controls (Table C6)
[17] = 1280 g/ha, visual grading after ca. 3 weeks vs untreated controls (Table A9)
[18] = 1280 g/ha, assessed visually after ca. 3 weeks vs untreated controls (Table B11)

Row | SMILES | herbicidal effect in percent, MATIN [1, 13] [%] | herbicidal effect in percent, MATIN [1, 14] [%] | herbicidal effect in percent, AMARE [2, 15] [%] | herbicidal effect in percent, STEME [3, 16] [%] | herbicidal effect in percent, STEME [3, 17] [%] | herbicidal effect in percent, AMARE [4, 18] [%] | herbicidal effect in percent, KCHSC [5] [%] | herbicidal effect in percent, STEME [6] [%] | herbicidal effect in percent, VERPE [7] [%] | herbicidal effect in percent, POAAN [8] [%] | herbicidal effect in percent, AMARE ([2]; 320 g/ha, visual grading after ca. 3 weeks vs untreated controls (Table C8)) [%] | herbicidal effect in percent, KCHSC [9] [%] | herbicidal effect in percent, AMARE ([4]; 320 g/ha, assessed visually after ca. 3 weeks vs untreated controls (Table D6)) [%] | herbicidal effect in percent, MATIN [10] [%] | herbicidal effect in percent, POAAN [11] [%] | herbicidal effect in percent, SETVI ([12]; 320 g/ha, visual grading after ca. 3 weeks vs untreated controls (Table C5)) [%] | herbicidal effect in percent, SETVI ([12]; 1280 g/ha, visual grading after ca. 3 weeks vs untreated controls (Table A8)) [%]
1 | COc1nccc(C2CC2(F)F)c1C(=O)Nc1ncns1 (stereo not drawn) [Example I-001, 4-(2,2-difluorocyclopropyl)-2-methoxy-N-(1,2,4-thiadiazol-5-yl)pyridine-3-carboxamide] | 90 | 90 | – | – | – | – | – | – | – | – | – | – | – | – | – | – | –
2 | O=C(Nc1ncns1)c1c(C2CC2(F)F)ccnc1F (stereo not drawn) [Example I-002, 4-(2,2-difluorocyclopropyl)-2-fluoro-N-(1,2,4-thiadiazol-5-yl)pyridine-3-carboxamide] | 90 | 100 | 100 | 90 | 90 | 90 | 90 | 90 | 90 | – | – | – | – | – | – | – | –
3 | COc1nccc(C2CC2)c1C(=O)Nc1ncns1 [Example I-007] | – | – | 100 | 90 | 90 | – | – | – | – | 90 | – | – | – | – | – | – | –
4 | O=C(Nc1ncns1)c1cnccc1C1CC1 [Example I-008] | – | – | 100 | 90 | 90 | 100 | 90 | 100 | 90 | 90 | 90 | 90 | 90 | 100 | 90 | – | –
5 | C=C(C)c1ccnc(Cl)c1C(=O)Nc1ncns1 [Example I-009] | – | 100 | – | – | 90 | 90 | – | 90 | – | – | – | – | – | – | – | 90 | 100
6 | Cc1nsc(NC(=O)c2c(C3CC3)ccnc2Cl)n1 [Example I-011] | 100 | 100 | – | – | 90 | – | – | 90 | 90 | – | – | – | – | – | – | – | –
